Columns and labels:
Glycine receptor = Glycine receptor (Rattus norvegicus, UniProt P22771+P24524+P07727+P20781); assay type: cell membranes, Wistar, Spinal cord, Membrane; note: in other assays of this panel Not Active means under 50% inhibition at 10 µM
[1] = DRUGMATRIX: Phosphodiesterase PDE4 enzyme inhibition (substrate: [3H]cAMP + cAMP); settings: u-937; Not Active = under 50% inhibition at 10 µM
[2] = biological target: T1, Angiotensin-converting enzyme (Oryctolagus cuniculus, UniProt P12822); assay: biochemical; assay type: tissue-based, Lung;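 note: enzymatic inhibition of angiotensin-converting enzyme measured with FAPGG as the substrate; in other assays of this panel Not Active means under 50% inhibition at 10 µM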
T1 sequence (P12822 whole entry): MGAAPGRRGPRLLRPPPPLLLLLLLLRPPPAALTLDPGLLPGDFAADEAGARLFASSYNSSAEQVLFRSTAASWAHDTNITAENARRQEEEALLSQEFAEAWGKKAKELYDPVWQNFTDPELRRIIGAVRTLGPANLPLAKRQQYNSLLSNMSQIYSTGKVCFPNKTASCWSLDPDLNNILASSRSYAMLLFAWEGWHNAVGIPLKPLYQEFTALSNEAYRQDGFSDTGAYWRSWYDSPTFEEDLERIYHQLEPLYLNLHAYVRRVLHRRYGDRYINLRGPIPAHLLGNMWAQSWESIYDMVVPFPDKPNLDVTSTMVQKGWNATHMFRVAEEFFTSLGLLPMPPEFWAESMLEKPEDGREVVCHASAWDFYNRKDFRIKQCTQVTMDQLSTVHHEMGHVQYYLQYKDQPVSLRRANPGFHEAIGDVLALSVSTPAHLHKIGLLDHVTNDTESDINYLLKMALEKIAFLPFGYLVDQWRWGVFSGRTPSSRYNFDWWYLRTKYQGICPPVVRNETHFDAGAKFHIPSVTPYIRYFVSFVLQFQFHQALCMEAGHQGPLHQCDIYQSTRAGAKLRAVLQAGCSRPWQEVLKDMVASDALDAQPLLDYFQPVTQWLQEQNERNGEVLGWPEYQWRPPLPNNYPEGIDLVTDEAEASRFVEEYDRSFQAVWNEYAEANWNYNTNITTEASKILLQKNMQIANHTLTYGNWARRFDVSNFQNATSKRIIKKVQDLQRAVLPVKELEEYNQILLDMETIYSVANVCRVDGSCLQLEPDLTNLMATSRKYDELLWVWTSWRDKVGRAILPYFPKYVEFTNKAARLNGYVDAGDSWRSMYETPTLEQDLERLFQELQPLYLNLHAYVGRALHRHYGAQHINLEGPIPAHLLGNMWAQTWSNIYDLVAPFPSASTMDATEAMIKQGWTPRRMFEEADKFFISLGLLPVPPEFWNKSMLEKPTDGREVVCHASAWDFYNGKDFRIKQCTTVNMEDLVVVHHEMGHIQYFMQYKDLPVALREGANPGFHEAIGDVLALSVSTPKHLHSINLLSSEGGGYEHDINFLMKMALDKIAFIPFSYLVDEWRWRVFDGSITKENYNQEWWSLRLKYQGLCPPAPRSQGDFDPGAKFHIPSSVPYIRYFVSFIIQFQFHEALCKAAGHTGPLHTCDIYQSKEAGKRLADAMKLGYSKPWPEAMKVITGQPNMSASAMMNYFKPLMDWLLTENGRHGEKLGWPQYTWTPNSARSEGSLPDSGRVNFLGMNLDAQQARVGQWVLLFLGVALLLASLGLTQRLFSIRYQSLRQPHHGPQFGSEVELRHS

Interstitial collagenase = biological target: T2, Interstitial collagenase (Homo sapiens, UniProt P03956); assay: biochemical; assay type: tissue-based, Rheumatoid synovial fibroblasts;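 note: MMP-1 enzyme inhibition assay using a peptide substrate; in other assays of this panel Not Active means under 50% inhibition at 10 µM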
T2 sequence (P03956 whole entry): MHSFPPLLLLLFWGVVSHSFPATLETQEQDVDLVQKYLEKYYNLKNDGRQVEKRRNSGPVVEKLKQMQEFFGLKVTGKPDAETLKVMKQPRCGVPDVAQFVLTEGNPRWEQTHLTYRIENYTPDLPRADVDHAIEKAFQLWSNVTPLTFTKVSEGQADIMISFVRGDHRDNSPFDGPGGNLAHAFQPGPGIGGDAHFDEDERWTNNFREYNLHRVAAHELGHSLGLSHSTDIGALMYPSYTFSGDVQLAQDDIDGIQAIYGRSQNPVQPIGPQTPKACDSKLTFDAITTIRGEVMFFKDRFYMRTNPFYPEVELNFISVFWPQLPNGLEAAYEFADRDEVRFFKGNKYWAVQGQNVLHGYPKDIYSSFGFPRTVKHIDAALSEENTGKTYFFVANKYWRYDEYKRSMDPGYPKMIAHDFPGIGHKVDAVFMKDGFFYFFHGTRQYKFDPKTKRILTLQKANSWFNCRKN

Glucocorticoid receptor = biological target: T3, Glucocorticoid receptor (Homo sapiens, UniProt P04150); settings: hela s3; note: in other assays of this panel Not Active means under 50% inhibition at 10 µM
T3 sequence (P04150 whole entry): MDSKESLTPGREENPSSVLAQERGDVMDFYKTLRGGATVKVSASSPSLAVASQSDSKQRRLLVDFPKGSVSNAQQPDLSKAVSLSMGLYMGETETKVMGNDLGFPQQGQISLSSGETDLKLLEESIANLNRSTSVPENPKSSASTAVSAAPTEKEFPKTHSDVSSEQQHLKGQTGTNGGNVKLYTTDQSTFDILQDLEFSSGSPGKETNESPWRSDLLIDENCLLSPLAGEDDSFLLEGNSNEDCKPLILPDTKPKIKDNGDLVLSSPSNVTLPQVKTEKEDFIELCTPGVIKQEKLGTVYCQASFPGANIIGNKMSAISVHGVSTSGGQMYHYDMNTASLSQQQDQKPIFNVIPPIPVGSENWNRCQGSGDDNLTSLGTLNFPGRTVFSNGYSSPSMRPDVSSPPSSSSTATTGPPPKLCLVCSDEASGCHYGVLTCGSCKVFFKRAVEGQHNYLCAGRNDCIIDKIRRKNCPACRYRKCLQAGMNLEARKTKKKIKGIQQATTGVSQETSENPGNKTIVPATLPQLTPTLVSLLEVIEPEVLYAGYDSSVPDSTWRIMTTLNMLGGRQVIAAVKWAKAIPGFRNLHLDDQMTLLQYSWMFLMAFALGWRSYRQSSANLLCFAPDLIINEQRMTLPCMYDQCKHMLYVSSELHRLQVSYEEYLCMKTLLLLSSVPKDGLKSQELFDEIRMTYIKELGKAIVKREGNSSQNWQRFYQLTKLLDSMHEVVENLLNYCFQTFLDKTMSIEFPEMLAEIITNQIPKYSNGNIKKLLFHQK

CC12CCC(CC1=O)C2(C)C (stereo not given) [CAMPHOR]
Not Active: IC50 (Glycine receptor) | IC50 [1] | Ki [1] | IC50 [2] | IC50 (Interstitial collagenase) | IC50 (Glucocorticoid receptor)

C[C@@H]1[C@H](O)[C@@H](C)/C=C/C=C/C=C/C=C/C=C/C=C/C=C/[C@H](O[C@@H]2O[C@H](C)[C@@H](O)[C@H](N)[C@@H]2O)C[C@@H]2O[C@](O)(C[C@@H](O)C[C@@H](O)[C@H](O)CC[C@@H](O)C[C@@H](O)CC(=O)O[C@H]1C)C[C@H](O)[C@H]2C(=O)O [AMPHOTERICIN B]
Not Active: IC50 (Glycine receptor) | IC50 [1] | Ki [1] | IC50 [2] | IC50 (Interstitial collagenase) | IC50 (Glucocorticoid receptor)

Nc1ccc(Cc2ccc(N)cc2)cc1
Not Active: IC50 (Glycine receptor) | IC50 [1] | Ki [1] | IC50 [2] | IC50 (Interstitial collagenase) | IC50 (Glucocorticoid receptor)

CCN(CCO)CCCC(C)Nc1ccnc2cc(Cl)ccc12 (stereo not given) [HYDROXYCHLOROQUINE]
Not Active: IC50 (Glycine receptor) | IC50 [1] | Ki [1] | IC50 [2] | IC50 (Interstitial collagenase) | IC50 (Glucocorticoid receptor)

O=C(O)CCc1nc(-c2ccccc2)c(-c2ccccc2)o1 [OXAPROZIN]
Not Active: IC50 (Glycine receptor) | IC50 [1] | Ki [1] | IC50 [2] | IC50 (Interstitial collagenase) | IC50 (Glucocorticoid receptor)

C=CCN1CC[C@]23c4c5ccc(O)c4O[C@H]2/C(=N/N=C2\CC[C@@]4(O)[C@H]6Cc7ccc(O)c8c7[C@@]4(CCN6CC=C)[C@H]2O8)CC[C@@]3(O)[C@H]1C5 [NALOXONAZINE]
Not Active: IC50 (Glycine receptor) | IC50 [1] | Ki [1] | IC50 [2] | IC50 (Interstitial collagenase) | IC50 (Glucocorticoid receptor)

COC(=O)Nc1nc2ccc(Sc3ccccc3)cc2[nH]1 [FENBENDAZOLE]
Not Active: IC50 (Glycine receptor) | IC50 [1] | Ki [1] | IC50 [2] | IC50 (Interstitial collagenase) | IC50 (Glucocorticoid receptor)

CC12CCC(CC1)C(C)(C)O2 [EUCALYPTOL]
Not Active: IC50 (Glycine receptor) | IC50 [1] | Ki [1] | IC50 [2] | IC50 (Interstitial collagenase) | IC50 (Glucocorticoid receptor)

O=C(Nc1ccc(Cl)c(Cl)c1)c1cc(Cl)cc(Cl)c1O [3,3',4',5-TETRACHLOROSALICYLANILIDE]
Not Active: IC50 (Glycine receptor) | IC50 [1] | Ki [1] | IC50 [2] | IC50 (Interstitial collagenase) | IC50 (Glucocorticoid receptor)

Cc1ccnc2c1NC(=O)c1cccnc1N2C1CC1 [NEVIRAPINE]
Not Active: IC50 (Glycine receptor) | IC50 [1] | Ki [1] | IC50 [2] | IC50 (Interstitial collagenase) | IC50 (Glucocorticoid receptor)

O=C1CN(/N=C/c2ccc([N+](=O)[O-])o2)C(=O)N1 [NITROFURANTOIN]
Not Active: IC50 (Glycine receptor) | IC50 [1] | Ki [1] | IC50 [2] | IC50 (Interstitial collagenase) | IC50 (Glucocorticoid receptor)

O=c1[nH]c2ccccc2c2ccccc12
Not Active: IC50 (Glycine receptor) | IC50 [1] | Ki [1] | IC50 [2] | IC50 (Interstitial collagenase) | IC50 (Glucocorticoid receptor)

COC(=O)C[C@](O)(CCC(C)(C)O)C(=O)O[C@@H]1C(OC)=C[C@]23CCCN2CCc2cc4c(cc2[C@H]13)OCO4 [HARRINGTONINE]
Not Active: IC50 (Glycine receptor) | IC50 [1] | Ki [1] | IC50 [2] | IC50 (Interstitial collagenase) | IC50 (Glucocorticoid receptor)

Nc1nc(F)nc2c1ncn2[C@@H]1O[C@H](CO)[C@@H](O)[C@@H]1O [FLUDARABINE]
Not Active: IC50 (Glycine receptor) | IC50 [1] | Ki [1] | IC50 [2] | IC50 (Interstitial collagenase) | IC50 (Glucocorticoid receptor)

C=C(Cl)Cl [1,1-DICHLOROETHENE]
Not Active: IC50 (Glycine receptor) | IC50 [1] | Ki [1] | IC50 [2] | IC50 (Interstitial collagenase) | IC50 (Glucocorticoid receptor)

From ChEMBL document CHEMBL1909046, “DrugMatrix in vitro pharmacology data”
